Common to all, as to format: in vivo
One assay deals with Nilaparvata lugens. Briefly: insecticidal mortality test, Nephotettix cincticeps replaced by Nilaparvata lugens. The following applies: Nilaparvata lugens, in Oryza sativa, 72 h, read-out: grading of mortality, NC with Nilaparvata lugens. The method, then:
The activity of the Product was determined using a variety of insect pests. The Product was used in the form of liquid preparations containing 500, 250 or 100 parts per million (ppm) by weight of the Product. The preparations were made by dissolving the Product in acetone and diluting the solutions with water containing 0.01% by weight of a wetting agent sold under the trade name "LlSSAPOL" NX until the liquid preparations contained the required concentration of the Product. "Lissapol" is a Registered Trade Mark.
The test procedure adopted with regard to each pest was basically the same and comprised supporting a number of the pests on a medium which was usually a host plant or a foodstuff on which the pests feed, and treating either or both the pests and the medium with the preparations. The mortality of the pests was then assessed at periods usually varying from one to three days after the treatment.
The results of the tests are given in Table III for each of the Products, at the rate in parts per million given in the second column as a grading of mortality designated as A, B or C wherein A indicates 80-100% mortality, B indicates 50-79% mortality and C indicates less than 50% mortality.
In Table 111 the pest organism used is designated by a letter code and the pests species, the support medium or food, and the type and duration of test is given in Table II.

The test system of assay [1] is Blattella germanica (cockroach nymphs). Nature of the assay: insecticidal mortality test, residual, plastic pot. The following applies: 72 h, read-out: grading of mortality, BG. A digest of the protocol: (§1)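 Mortality grades: A 80–100%, B 50–79%, C <50%, scored usually 1 to 3 days post-treatment. Test liquids held 500, 250 or 100 ppm by weight, prepared from acetone solution diluted into water with 0.01% wetting agent.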

Assay [2] concerns Diabrotica balteata (rootworm larvae). Nature of the assay: insecticidal mortality test, residual, filter paper/maize seed. Particulars: 72 h, read-out: grading of mortality, DB. A digest of the protocol:
as §1

For assay [3], the system named is Blattella germanica (adult males). Nature of the assay: Blattella germanica knockdown test. Particulars: Blattella germanica, tests 1 and 2 are repeats. Put shortly: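 Adult male German cockroaches, 10 per pot, sprayed in a Potter tower with 250 ppm compound in acetone/kerosene. Knockdown scored every 5 min to 20 min (sometimes 1–4 min, giving KT50/KT90); mortality after 48 h at 25°C, 65% RH; tests repeated.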

In assay [4] the test system is Heliothis virescens (tobacco budworm - larvae). Nature of the assay: insecticidal mortality test, residual, cotton leaf. The following applies: 72 h, 100 ppm, residual, cotton leaf, 3 days, read-out: grading of mortality, HV. Put shortly:
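Mortality, assessed 1–3 days post-treatment, is graded A 80-100%, B 50-79%, C <50%. Treatment applied to pests, their host plant or food medium, or both. Preparations at 500, 250 or 100 ppm made from acetone solutions diluted with water containing 0.01% wetting agent.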

The subject of assay [5] is Spodoptera exigua (lesser army worm - larvae). Nature of the assay: insecticidal mortality test, residual, cotton leaf. Particulars: 72 h, read-out: grading of mortality, SP. Put shortly:
as §1

The test system of assay [6] is Musca domestica (adult females). Briefly: Musca domestica knockdown test. Particulars: 1 cm3 of 30 ppm solution in acetone, Kearns and March chamber, 20 adult females, observed over 10 minutes; average of 2 replicates (* single replicate, ** average of 7 tests). The method, then:
1 cm³ Of a 30 ppm solution of the test chemical in acetone was sprayed into a Kearns and March chamber containing 20 Musca domestica (adult females). Knockdown was observed over a period of 10 minutes and KT₅₀ and KT₉₀ values (the time taken for 50% and 90% of the insects to be knocked down) were calculated from the observations. The results given in Table V represent average KT values of 2 replicates except where otherwise stated.

Assay [7] concerns Musca domestica (houseflies - adults). Nature of the assay: insecticidal mortality test, contact, cotton wool/sugar. The following applies: 24 h, read-out: grading of mortality, MD. A digest of the protocol:
as §1

For assay [8], the system named is Tetranychus urticae (spider mites - adult). Nature of the assay: insecticidal mortality test, contact, French bean leaf. Particulars: Tetranychus urticae, 72 h, read-out: grading of mortality, Tua, 100 ppm, 3 days. Put shortly: as §1
The subject of a further assay is Myzus persicae (aphids). Briefly: insecticidal mortality test, contact, Chinese Cabbage leaf. The following applies: 72 h, read-out: grading of mortality, MP. A digest of the protocol: as §1

Experimental findings from patent EP0302626A2, “Insecticidal compounds” (IMPERIAL CHEMICAL INDUSTRIES PLC, priority 1987, dated 1989) are described below.

SMILES strings stand for the structures.

On to `C#Cc1c(F)c(F)c(COC(=O)C2C(C=C(Cl)C(F)(F)F)C2(C)C)c(F)c1F` (racemic) [Product XVI, 4-Ethynyl-2,3,5,6-tetrafluorobenzyl (1RS, cis)-3-(Z-2-chloro-3,3,3-trifluoroprop-1-en-1-yl)-2,2-dimethylcyclopropanecarboxylate], for which the mortality at 100 ppm (with Nilaparvata lugens; in assay [1]; in assay [2]; in assay [4]; in assay [5]; in assay [7]) was 80 to 100% in each case. In addition, the figures for the mortality at 100 ppm (in assay [8]; with Myzus persicae (aphids)) were 50 to 79% and 80 to 100%, respectively. The mortality (as a rule, the share of the test organisms that died) at 250 ppm in assay [3] (48 h, 250 ppm spray, insects held at 25°C and 65% relative humidity for 48 hours, read-out: % MORTALITY 48 hrs) is 100%. Besides, the pest or weed control at 250 ppm in assay [3] (topical, 10 min, 250 ppm in kerosene, 1 cm3 sprayed onto 10 adult males, 10 min, Tetramethrin: mean of 27 observations, read-out: % KNOCKDOWN OBSERVED 10 min) was determined as 100%. For the same compound, the KT₅₀ in assay [6] is recorded as 4.6* mins. In addition, the KT₉₀ in [6] was 7.0* mins.
